These results are taken from patent US4051259A, “Phenoxyacetic acid amide” (Les Laboratoires Bruneau & Cie, priority 1975, dated 1977).

One data set relates to rat. Nature of the data set: anorexigenic activity (ED50) by the method of LeDouarec. Type of data set: in vivo. The note with it: for ED50: rat, po, read-out: ED50 po (anorexia); for anorexigenic activity (in words): comparison of results within the table. The text has this:
(§1) The toxicity (LD50) has been determined in the mice by the method of Karber and Behrens (Arch. Expl. Pathol. Pharmacol., 1931, 162, 48) and the anorexigenic activity (ED50) in the rat by the method of LeDouarec (J. Pharmacol. Paris 1970, 1, 419-22).

Data set [1] in a line: toxicity (LD50) by the method of Karber and Behrens. Type of data set: in vivo, mice. The note with it: mouse, in vivo; mice, po.
Description: as §1

Another data set relates to mice. The data set is described as above. Type of data set: in vivo. The note with it: for toxicity (in words): comparison of results within the table.
Description: as §1

Take `CCNc1ccc(OCC(=O)NC(C)Cc2cccc(C(F)(F)F)c2)cc1` (stereo not drawn) [LB 359]: the ED50 in the data set with rat is 15 mg/kg. In addition, the LD50 in data set [1] is 1600 mg/kg.
Take `CCCCCCNc1ccc(OCC(=O)NC(C)Cc2cccc(C(F)(F)F)c2)cc1` (stereo not drawn) [LB 446]: in the data set on rat, the ED50 was 45 mg/kg. Moreover, the LD50 in data set [1] is > 4000 mg/kg.
For `CCCCNc1ccc(OCC(=O)NC(C)Cc2cccc(C(F)(F)F)c2)cc1` (stereo not drawn) [LB 448], in that order: 20 mg/kg and > 2000 mg/kg.
As to `CNc1ccc(OCC(=O)NC(C)Cc2cccc(C(F)(F)F)c2)cc1` (stereo not drawn) [LB 367], the 50% effective dose (ED50) in the data set on rat is 12 mg/kg. In data set [1], this compound came in with an LD50 of 800 mg/kg.
For the compound `CCCCCNc1ccc(OCC(=O)NC(C)Cc2cccc(C(F)(F)F)c2)cc1` (stereo not drawn) [LB 411, 1-methyl-2-(m-trifluoromethylphenyl)-ethylamide of p-pentylaminophenoxyacetic acid], the “anorexigenic activity (in words)” value in the data set on rat was “particularly high”; with rat (listed as n-pentyl derivative) it was “outstanding anorexia-inducing properties”. The ED50 with rat is 10 mg/kg. For the same compound, the “intensity of intoxication symptoms” value with mice (at doses near the LD50) was “relatively weak”. Also, the intoxication symptoms result in the data set with mice (at doses near the LD50, first hour, then later) was “hypomotility and hypothermia during the first hour than tremor and convulsions”. Further, the “toxicity (in words)” value in the data set with mice was “very low”; in the data set with mice (listed as n-pentyl derivative) it was “low toxicity”. The “doses at which intoxication symptoms appear” value with mice (doses relative to LD50) is recorded as “only at doses near of the LD50”. Further, the LD50 in data set [1] turned out to be 4000 mg/kg.
On to `CCCNc1ccc(OCC(=O)NC(C)Cc2cccc(C(F)(F)F)c2)cc1` (stereo not drawn) [LB 368], for which, in the data set on rat, the ED50 was 20 mg/kg. The LD50 in data set [1] was > 1600 mg/kg.
For `CC(C)CNc1ccc(OCC(=O)NC(C)Cc2cccc(C(F)(F)F)c2)cc1` (stereo not drawn) [LB 369], in that order: 25 mg/kg and > 2000 mg/kg.

What is called ED50 is the dose at which the effect has come halfway, by size or by number of responders. The term LD50 denotes the dose at which mortality reaches 50%.
